# Measurements published in US20210290541A1, “SOLID DISPERSION OF HYDANTOIN DERIVATIVE” (Chugai Seiyaku Kabushiki Kaisha, priority 2018, published 2021).
# How the values were obtained:
# Format in all cases: physicochemical
# [1] = organic solvent solubility; conditions: for solubility: organic solvent or mixture
# Protocol: (§1) Compound I can be produced, for example, by the method described in Example 3 (Compound 7) of WO2014/092061.
# A solvent suitable for solvent treatment may be any compound in which drugs, polymers, and bases are mutually soluble. Preferably, the solvent is also volatile and has a boiling point of 150° C. or lower. Furthermore, the solvent should have relatively low toxicity and should be removed from the solid dispersion to a level that is acceptable according to the guidelines of the International Council for Harmonization of Technical Requirements for Pharmaceuticals for Human Use (ICH). Removal of the solvent to this level may require a subsequent processing step such as tray-drying. Preferred solvents include alcohols such as methanol, ethanol, n-propanol, iso-propanol, and butanol; ketones such as acetone, methyl ethyl ketone, and methyl iso-butyl ketone; esters such as ethyl acetate and propyl acetate; and various other solvents, such as acetonitrile, methylene chloride, toluene, 1,1,1-trichloroethane, and tetrahydrofuran. Low-volatility solvents such as dimethylacetamide or dimethylsulfoxide can also be used in small amounts in mixtures with volatile solvents. A mixture of solvents such as 50% methanol and 50% acetone can also be used in the same manner as a mixture with water. Preferred solvents are ethanol, methanol, acetone, tetrahydrofuran, ethyl acetate, mixtures of these with water, and mixtures thereof. […] In particular, tetrahydrofuran and its mixed liquids can be referred to as preferred solvents.
# [2] = storage stability of crystals
# pKa values = test: pKa values
# From the text: as §1
# In the present invention, the “base” preferably has a pKa value greater than that of Compound I. Since the lower pKa value of Compound I is about 8, the bases that can be used in the present invention desirably have a pKa value that is preferably more than about 9, even more preferably more than about 10, and most preferably more than about 11. Here, the term pKa is used in its conventional form. That is, pKa is the negative logarithm of the ionization constant of the acid. Unless otherwise specified, pKa is assumed to be measured in distilled water at 25° C.
# water solubility = conditions: 37° C., pH 6 to 7
# From the text: as §1
# [3] = solubility in FaSSIF (excess amount, stirring 24 hours or more, centrifugation, HPLC)
# Protocol: A suitable FaSSIF is, for example, an aqueous solution containing 28.7 mM potassium dihydrogen phosphate (KH2PO4), 103.3 mM KCl, 3 mM sodium taurocholate, and 0.8 mM L-α-phosphatidylcholine, and adjusted to pH 6.5 using NaOH.
# Furthermore, for the purpose of evaluating the solubility of the type I crystal of the free form of Compound I in FaSSIF, an excess amount of the type I crystal of the free form of Compound I was placed in FaSSIF, and after soaking and stirring at 37° C. for 24 hours or more, this was subjected to centrifugation. […] In addition, the solubility of the type II crystal of the free form of Compound I evaluated in the same manner was 2 μg/mL.
structure (smiles),measurement,setting,value
Cc1cc(N2C(=O)NC(=O)C2(C)C)cc(C)c1CCS(=O)(=O)N1CCC2(CC1)N=C(c1ccc(OC(F)(F)F)cc1)NC2=O [type I crystal of the free form of Compound I],solubility in THF (tetrahydrofuran),[1]; room temperature,≥ 80 mg/mL
same,storage stability,[2],excellent storage stability
"Cc1cc(N2C(=O)NC(=O)C2(C)C)cc(C)c1CCS(=O)(=O)N1CCC2(CC1)N=C(c1ccc(OC(F)(F)F)cc1)NC2=O [Compound I, 1-(3,5-dimethyl-4-(2-((4-oxo-2-(4-(trifluoromethoxy)phenyl)-1,3,8-triazaspiro[4.5]deca-1-en-8-yl)sulfonyl)ethyl)phenyl)-5,5-dimethylimidazolidine-2,4-dione]",solubility,"[1]; acetone/water mixture (95:5 v/v), volume ratio 95:5, read-out: solubility in a mixed solution of acetone and water",≥ 50 mg/mL
same,solubility,"[1]; tetrahydrofuran, room temperature, read-out: solubility in THF (tetrahydrofuran)",≥ 80 mg/mL
same,solubility,"[1]; tetrahydrofuran/methanol mixture (95:5 v/v), volume ratio 95:5, read-out: solubility in a mixed solution of tetrahydrofuran and methanol",≥ 100 mg/mL
same,pKa values,pKa values,about 8
Cc1cc(N2C(=O)NC(=O)C2(C)C)cc(C)c1CCS(=O)(=O)N1CCC2(CC1)N=C(c1ccc(OC(F)(F)F)cc1)NC2=O,solubility,water solubility,< 0.001 mg/mL
same,pKa,pKa values; distilled water,8
same,solubility,"[3]; FaSSIF, 37 °C, pH 6.5, fassif, thermodynamic from solid",0.001 mg/mL
Cc1cc(N2C(=O)NC(=O)C2(C)C)cc(C)c1CCS(=O)(=O)N1CCC2(CC1)N=C(c1ccc(OC(F)(F)F)cc1)NC2=O [type II crystal of the free form of Compound I],solubility in FaSSIF,[3]; 37° C.,0.002 mg/mL
